Measurements published in patent US6891069B1, “Synthesis of 4-substituted phthalaldehyde” (Ethicon, Inc., priority 2004, dated 2005).
Structures can show the parent of a compound that is named as a salt. Where two headings read alike, the source gives them in different places.

Key:
[1] = system: Mycobacterium terrae bacteria; assay: bacterial suspension test; format: cell-based; settings: for Germicidal Efficacy: summary Table 14
Method: In Examples 1 to 3, which follow, several germicidal solutions containing either the 4-fluoro-, 4-chloro-, or 4-bromo-phthalaldehyde compound were tested to determine their effectiveness in killing at least 1×10^6/mL of Mycobacterium terrae bacteria using a bacterial suspension test. The bacterial suspension test that was employed is described in Section VII.
The solutions were prepared by adding the appropriate amounts of the germicidal compounds to an aqueous solution. Unless otherwise mentioned all concentrations reported herein are expressed in (w/v)%. The pH of the solution was not adjusted. The tests were conducted at a temperature of about 20° C. (room temperature). The results are presented in terms of log reductions/mL. It is understood that these examples, as well as the other examples herein, are to be construed as merely illustrative, and not limiting.
In this test method, 9 mL of the germicide to be tested is placed in a tube, put into a water bath and allowed to come to the desired temperature. One mL of the test organism, including at least 7 logs/mL of Mycobacterium terrae bacteria, is added to the 9 mL of the germicide to be tested. […] It will be appreciated by those skilled in the art that other concentrations may be utilized by proper dilution and accounting.
At appropriate time intervals, 1 mL aliquots of the germicide-cell suspension were removed and added directly into 9 mL of a 1% glycine solution (neutralizer) and mixed thoroughly to neutralize the germicide in the transferred suspension. The glycine solution was prepared from solid glycine, which is available from VWR Scientific Products, among others. The above-identified 10 mL neutralized solution was then poured through a membrane filter having an average pore size of 0.45 micrometers. The filter was then rinsed twice with at least 150 mL of the 1% glycine solution per rinse. The filter was then placed on an agar plate and incubated for twenty-one days at 37° C. In the above procedure, if dilution was needed, then the 1 mL germicidal-cell suspension was diluted in 99 mL of a phosphate buffer before addition to the 9 mL of the 1% glycine solution. The phosphate buffer was DiLu-LoK™ Butterfields Phosphate Buffer, available from Hardy Diagnostics, of Santa Maria, Calif.
The surviving colonies are then counted. The data is plotted as S/So vs. time. So is the initial count of the bacteria in the above 10 mL solution which is at least 10^6 bacteria/mL, and S is the surviving bacteria from the above filter on the agar plate. The results of the experiments were presented in terms of log reductions. Log reduction is the difference between log(So) and log(S). As one example, if log(So)=6.2, and if there were 100 survivors, then the log(S)=2, and the log reduction was reported as 4.2.

solubility in water = settings: for Concentration, Saturated: saturated aqueous germicidal solution, pH not adjusted

4-pyridinyl-propanedial
Log Reductions/mL ([1]; Saturated (˜2.3% w/v), 5 min, 20° C.): 4.0 log reductions/mL | Concentration, Saturated (solubility in water): (˜2.3%) w/v %

O=CC(c1ccccc1)C(O)S(=O)(=O)[O-].[Na+] (stereo not shown) [1-hydroxy-3-oxo-2-phenyl-propane-1-sulfonic acid, sodium salt]
Log Reductions/mL ([1]; 0.6%, 20° C., 60 min, sodium salt): Total Kill | Log Reductions/mL ([1]; 2.5%, 20° C., 10 min, sodium salt): Total Kill | Log Reductions/mL ([1]; 2.5%, 20° C., 30 min): Total Kill | Log Reductions/mL ([1]; 9.4%, 20° C., 30 min): Total Kill | log reduction at 0.6 % ([1]; Mycolicibacter terrae, 0.25 h, 0.6%, 20° C., 15 min, read-out: Log Reductions/mL): 2.4 | log reduction at 0.6 % ([1]; Mycolicibacter terrae, 0.5 h, 0.6%, 20° C., 30 min, read-out: Log Reductions/mL): 3.5

O=CC(c1nc2ccccc2o1)C(O)S(=O)(=O)O (stereo not shown) [2-benzooxazol-2-yl-1-hydroxy-3-oxo-propane-1-sulfonic acid, sodium salt]
log reduction at 11.1 % ([1]; Mycolicibacter terrae, 1 h, 11.1%, 20° C., 60 min, read-out: Log Reductions/mL): 5

O=CC(C=O)c1cccc(C(=O)O)c1[N+](=O)[O-] [3-(1-formyl-2-oxoethyl)-2-nitro-benzoic acid]
Concentration, Saturated (solubility in water): (˜2.1%) w/v %

O=Cc1ccc(Br)cc1C=O [4-bromo-phthalaldehyde]
Log Reductions/mL ([1]; 0.1%, 20° C., 30 minutes): Total Kill | log reduction at 0.1 % ([1]; Mycolicibacter terrae, 10 min, 0.1%, 20° C., 10 minutes, read-out: Log Reductions/mL): 5.6

O=Cc1ccc(Cl)cc1C=O [4-chloro-phthalaldehyde]
Log Reductions/mL ([1]; 2.7 w/v % in 20% isopropanol, 20° C., 5 min): Total Kill | log reduction at 0.2 % ([1]; Mycolicibacter terrae, 5 min, 0.2 w/v %, 20° C., 5 min, read-out: Log Reductions/mL): 5.9

O=Cc1ccc(F)cc1C=O [4-fluoro-phthalaldehyde]
Log Reductions/mL ([1]; 0.25%, 20° C., 60 minutes): Total Kill | log reduction at 0.25 % ([1]; Mycolicibacter terrae, 0.5 h, 0.25%, 20° C., 30 minutes, read-out: Log Reductions/mL): 5.6

O=Cc1ccccc1C(O)S(=O)(=O)[O-].[Na+] (stereo not shown) [(2-formyl-phenyl)-hydroxy-methane sulfonic acid, sodium salt]
Log Reductions/mL ([1]; 9.1%, 20° C., 5 min, listed as (2-formyl-phenyl)-hydroxy-methane sulfonate, sodium salt): confluent | Log Reductions/mL ([1]; 9.1%, 20° C., 5 min, listed as H-SULF, sodium salt): Confluent | log reduction at 8.9 % ([1]; Mycolicibacter terrae, 0.5 h, 20° C., 30 min, read-out: Log Reductions/mL): 2 | log reduction at 8.9 % ([1]; Mycolicibacter terrae, 1 h, 20° C., 60 min, read-out: Log Reductions/mL): 3.5 | log reduction at 8.9 % ([1]; Mycolicibacter terrae, 2 h, 20° C., 120 min, read-out: Log Reductions/mL): 5.7

O=Cc1cccc(C=O)c1 [IPA, isophthalaldehyde, reference compound]
Log Reductions/mL ([1]; 0.3%, dissolved in 20% isopropanol, 20° C., 5 min (Table 11)): Confluent | Log Reductions/mL ([1]; 0.3%, dissolved in 20% isopropanol, 20° C., 5 min (Table 15)): Confluent | Germicidal Efficacy [1]: Poor

O=Cc1ccccc1C=O [OPA, phthalaldehyde]
log reduction at 0.08 % ([1]; Mycolicibacter terrae, 0.5 h, 0.08%, 20° C., 30 min, read-out: Log Reductions/mL): 3.1 | log reduction at 0.1 % ([1]; Mycolicibacter terrae, 0.5 h, 0.10%, 20° C., 30 min, read-out: Log Reductions/mL): 3.4 | log reduction at 0.14 % ([1]; Mycolicibacter terrae, 0.5 h, 0.14%, 20° C., 30 min, read-out: Log Reductions/mL): 5.8 | Germicidal Efficacy [1]: Good | solubility in water (solubility in water): about 5 % by weight

O=Cc1ccc(C=O)cc1 [TPA, terephthaladehyde, reference compound]
Log Reductions/mL ([1]; 0.2%, dissolved in 20% isopropanol, 20° C., 5 min): Confluent | Germicidal Efficacy [1]: Poor

O=CC(C=O)c1ccccc1 [phenyl-propanedial]
Log Reductions/mL ([1]; 0.4%, 20° C., 60 min): Total Kill | Log Reductions/mL ([1]; 0.7%, 20° C., 15 min): Total Kill | kill ([1]; 1% solution, 5 minutes, 20° C.): more than 4 logs | log reduction at 0.3 % ([1]; Mycolicibacter terrae, 1 h, 0.3%, 20° C., 60 min, read-out: Log Reductions/mL): 3.7 | log reduction at 0.33 % ([1]; Mycolicibacter terrae, 1 h, 0.33%, 20° C., 60 min, read-out: Log Reductions/mL): 3.7 | solubility in water (solubility in water): about 1%
